Source: ChEMBL document CHEMBL1152152, “Quantitative structure-activity relationship of phenoxyphenyl-methanamine compounds with 5HT2A, SERT, and hERG activities” (Bioorg Med Chem Lett, 2008)

Tests used:
[1] = molecular target: Sodium-dependent serotonin transporter (Homo sapiens, UniProt P31645); experiment: Inhibition of serotonin reuptake at SERT
[2] = molecular target: 5-hydroxytryptamine receptor 2A (Homo sapiens, UniProt P28223); experiment: Displacement of [3H]ketanserin from 5HT2A receptor
[3] = molecular target: Voltage-gated inwardly rectifying potassium channel KCNH2 (Homo sapiens, UniProt Q12809); experiment: Displacement of [3H]dofetilide from human ERG channel
Sequence of Voltage-gated inwardly rectifying potassium channel KCNH2 (Q12809 whole entry): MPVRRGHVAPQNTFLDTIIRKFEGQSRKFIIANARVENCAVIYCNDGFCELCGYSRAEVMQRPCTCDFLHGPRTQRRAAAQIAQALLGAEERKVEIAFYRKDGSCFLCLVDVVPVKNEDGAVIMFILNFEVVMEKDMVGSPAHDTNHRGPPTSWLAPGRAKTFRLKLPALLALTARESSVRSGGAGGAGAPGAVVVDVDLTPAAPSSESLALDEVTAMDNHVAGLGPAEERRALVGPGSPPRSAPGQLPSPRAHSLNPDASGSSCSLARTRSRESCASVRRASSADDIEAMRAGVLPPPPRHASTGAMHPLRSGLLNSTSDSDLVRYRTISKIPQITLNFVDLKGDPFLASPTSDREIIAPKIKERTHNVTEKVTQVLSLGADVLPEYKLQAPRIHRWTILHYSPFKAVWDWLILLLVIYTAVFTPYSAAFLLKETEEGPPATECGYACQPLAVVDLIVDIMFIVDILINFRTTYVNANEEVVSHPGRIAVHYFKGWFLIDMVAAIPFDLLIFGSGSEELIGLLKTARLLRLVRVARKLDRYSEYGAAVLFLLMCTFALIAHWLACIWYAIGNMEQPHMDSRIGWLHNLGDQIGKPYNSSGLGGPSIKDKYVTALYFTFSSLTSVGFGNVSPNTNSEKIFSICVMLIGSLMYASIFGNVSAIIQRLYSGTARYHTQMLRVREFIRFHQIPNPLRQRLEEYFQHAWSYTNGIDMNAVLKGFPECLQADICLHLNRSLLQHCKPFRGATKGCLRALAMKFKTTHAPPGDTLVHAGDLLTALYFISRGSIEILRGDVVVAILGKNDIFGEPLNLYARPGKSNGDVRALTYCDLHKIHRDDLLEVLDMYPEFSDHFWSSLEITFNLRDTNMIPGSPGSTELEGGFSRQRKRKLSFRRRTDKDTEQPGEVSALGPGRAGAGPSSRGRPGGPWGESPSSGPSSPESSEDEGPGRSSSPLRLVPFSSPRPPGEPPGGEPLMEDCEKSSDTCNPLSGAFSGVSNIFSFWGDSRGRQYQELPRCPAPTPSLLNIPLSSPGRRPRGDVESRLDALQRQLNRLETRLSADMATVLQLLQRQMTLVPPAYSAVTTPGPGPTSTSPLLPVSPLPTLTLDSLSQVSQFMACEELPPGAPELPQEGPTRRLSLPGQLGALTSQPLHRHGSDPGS

Sequence of 5-hydroxytryptamine receptor 2A (P28223 whole entry): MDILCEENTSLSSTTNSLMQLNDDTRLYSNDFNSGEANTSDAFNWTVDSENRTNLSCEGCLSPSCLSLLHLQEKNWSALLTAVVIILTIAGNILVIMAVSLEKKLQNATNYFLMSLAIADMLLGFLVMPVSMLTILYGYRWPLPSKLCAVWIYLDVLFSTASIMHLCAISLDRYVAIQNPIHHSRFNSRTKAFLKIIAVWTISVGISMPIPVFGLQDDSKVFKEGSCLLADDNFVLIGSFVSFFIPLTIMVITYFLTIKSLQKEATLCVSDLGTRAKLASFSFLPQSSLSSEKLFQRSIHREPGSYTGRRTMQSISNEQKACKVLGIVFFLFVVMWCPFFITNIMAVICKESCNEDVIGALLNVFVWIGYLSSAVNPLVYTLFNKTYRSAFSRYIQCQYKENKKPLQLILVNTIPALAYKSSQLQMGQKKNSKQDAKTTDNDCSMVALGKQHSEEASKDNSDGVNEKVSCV
Sequence of Sodium-dependent serotonin transporter (P31645 whole entry): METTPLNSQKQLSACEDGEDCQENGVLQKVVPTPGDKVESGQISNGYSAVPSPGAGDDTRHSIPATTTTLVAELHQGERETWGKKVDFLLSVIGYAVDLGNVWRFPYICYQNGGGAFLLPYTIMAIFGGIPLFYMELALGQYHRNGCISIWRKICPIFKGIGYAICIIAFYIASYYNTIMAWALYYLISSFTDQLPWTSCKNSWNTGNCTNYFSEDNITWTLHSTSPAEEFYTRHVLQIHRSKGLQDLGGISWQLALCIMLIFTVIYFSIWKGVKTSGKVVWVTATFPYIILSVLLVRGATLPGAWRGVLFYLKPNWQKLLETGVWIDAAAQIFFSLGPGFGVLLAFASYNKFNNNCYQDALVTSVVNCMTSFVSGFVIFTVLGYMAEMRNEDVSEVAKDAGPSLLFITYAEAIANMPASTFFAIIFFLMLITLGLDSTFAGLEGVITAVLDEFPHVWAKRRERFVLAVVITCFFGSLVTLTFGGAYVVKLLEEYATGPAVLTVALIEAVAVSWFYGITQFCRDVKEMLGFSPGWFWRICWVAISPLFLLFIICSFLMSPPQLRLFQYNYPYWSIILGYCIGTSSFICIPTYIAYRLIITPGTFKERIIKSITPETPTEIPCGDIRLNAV

Compound | IC50 [1] | IC50 [2] | IC50 [3]
CN(C)Cc1ccccc1Oc1ccc(Cl)cc1 | 1.68 nM | 1980 nM | 
CNCc1cc(F)ccc1Oc1ccc(F)c(Cl)c1 | 37.5 nM | 575 nM | 
CN(C)Cc1ccccc1Oc1ccc(Cl)c(Cl)c1 | 0.35 nM | 144 nM | 
CNC(C)c1cc(F)ccc1Oc1ccc(Cl)cc1 (configuration not stated) | 34.8 nM | 206 nM | 
CNCc1ccc(Cl)cc1Oc1ccc(Cl)c(F)c1 | 88 nM | 58.1 nM | 1230 nM
CN(C)Cc1ccccc1Oc1ccc(F)c(F)c1 | 34.4 nM | 1000 nM | 
CNCc1ccc(Cl)cc1Oc1ccc(C)cc1 | 17 nM | 1.18 nM | 
CNCc1cc(F)ccc1Oc1ccc(Cl)c(F)c1 | 19.3 nM | 2010 nM | 
CNCc1ccc(Cl)cc1Oc1cccc(Cl)c1 | 77.5 nM | 48.6 nM | 2110 nM
CCc1cc(Oc2cc(Cl)ccc2CNC)ccc1Cl | 20.7 nM | 47.1 nM | 1150 nM
CSc1ccc(Oc2ccccc2CN(C)C)cc1 | 1 nM | 458 nM | 3020 nM
CNCc1cc(C#N)ccc1Oc1ccc(Cl)c(Cl)c1 | 2.5 nM | 3180 nM | 4560 nM
CNCc1ccc(Br)cc1Oc1ccc(Cl)c(Cl)c1 | 5.1 nM | 66.8 nM | 
CN(C)Cc1cc(CC(N)=O)ccc1Oc1ccc(Cl)c(Cl)c1 | 2.43 nM | 2240 nM | 
CNCc1ccc(Cl)cc1Oc1ccc(C)c(Cl)c1 | 4.19 nM | 9.11 nM | 
CNCc1ccc(Cl)cc1Oc1ccc(Cl)c(C)c1 | 4.27 nM | 9.04 nM | 
CNC(C)c1cc(C(F)(F)F)ccc1Oc1ccc(Cl)c(Cl)c1 (configuration not stated) | 61.2 nM | 291 nM | 3030 nM
CNC(C)c1cc(C)ccc1Oc1ccc(Cl)c(Cl)c1 (configuration not stated) | 39.6 nM | 172 nM | 
CNCc1ccc(Cl)cc1Oc1ccc(F)c(Cl)c1 | 25.4 nM | 60.9 nM | 
CNCc1ccc(Cl)cc1Oc1ccc(F)c(C(F)(F)F)c1 | 9.71 nM | 48.9 nM | 873 nM
Cc1ccc(Oc2ccccc2CN(C)C)cc1 | 3.46 nM | 74.2 nM | 
CNCc1cc(F)ccc1Oc1ccc(-c2ccccc2)cc1 | 28.9 nM | 378 nM | 

Compound | IC50 [1] | IC50 [2] | IC50 [3]
CNCc1cc(F)c(OC)cc1Oc1ccc(Cl)c(Cl)c1 | 4.51 nM | 74.6 nM | 
CNCc1ccc(Cl)cc1Oc1ccc(F)c(C)c1 | 31.2 nM | 32.9 nM | 
COc1ccc(CN(C)C)c(Oc2ccc(Cl)c(Cl)c2)c1 | 3.61 nM | 36.8 nM | 
CNCc1cc(S(=O)(=O)NC)ccc1Oc1ccc(Cl)c(Cl)c1 | 9.35 nM | 5570 nM | 4800 nM
CNCc1cc(C)c(C)cc1Oc1ccc(Cl)c(Cl)c1 | 8.9 nM | 79.4 nM | 1480 nM
CNCc1cc(C(N)=O)ccc1Oc1ccc(Cl)c(Cl)c1 | 3.78 nM | 1550 nM | 5440 nM
Cc1ccc(Oc2ccc(Cl)c(Cl)c2)c(CN(C)C)c1 | 2.36 nM | 376 nM | 3390 nM
CNCc1cc(F)c(Cl)cc1Oc1ccc(Cl)c(Cl)c1 | 4.37 nM | 230 nM | 
CNC(C)c1ccc(Cl)cc1Oc1ccc(C)cc1 (configuration not stated) | 187 nM | 3.54 nM | 3690 nM
CNCc1cc(Cl)ccc1Oc1ccc(C)c(C)c1 | 9.81 nM | 51 nM | 
CNCc1cc(Cl)ccc1Oc1ccc(Cl)cc1 | 7.49 nM | 90.2 nM | 
CNCc1ccc(Cl)cc1Oc1ccc(Cl)cc1 | 9.2 nM | 6.59 nM | 
CNCc1cc(C(F)(F)F)ccc1Oc1ccc(C)cc1 | 74.7 nM | 34.7 nM | 10400 nM
CNCc1cc(F)ccc1Oc1ccccc1 | 381 nM | 670 nM | 
CNCc1ccc(Cl)cc1Oc1ccc(C)c(C)c1 | 4.67 nM | 3.42 nM | 
CC(c1ccccc1Oc1ccc(Cl)c(Cl)c1)N(C)C (configuration not stated) | 3.27 nM | 87.8 nM | 
CNCc1cc(OC)c(OC)cc1Oc1ccc(Cl)c(Cl)c1 | 14.1 nM | 249 nM | 
CNC(C)c1ccccc1Oc1ccc(Cl)c(Cl)c1 (configuration not stated) | 23 nM | 379 nM | 
CNC(C)c1ccccc1Oc1ccc(Cl)cc1 (configuration not stated) | 56.8 nM | 179 nM | 
CNCc1ccc(F)cc1Oc1ccc(Cl)c(Cl)c1 | 36 nM | 651 nM | 
CNCc1cc(F)ccc1Oc1ccc(C)c(C)c1 | 7.55 nM | 52.4 nM | 
CNCc1cc(F)ccc1Oc1ccc(Cl)c(Cl)c1 | 3.28 nM | 206 nM | 

Compound | IC50 [1] | IC50 [2] | IC50 [3]
CN(C)Cc1ccc(C(F)(F)F)cc1Oc1ccc(Cl)c(Cl)c1 | 17.1 nM | 41.5 nM | 
CNCc1ccccc1Oc1ccc(C)c(C)c1 | 12.8 nM | 66.4 nM | 
CNCc1ccccc1Oc1ccc(Cl)cc1 | 13.9 nM | 1050 nM | 
CNCc1ccc(C(F)(F)F)cc1Oc1ccc(Cl)c(Cl)c1 | 29.6 nM | 362 nM | 
CNCc1ccc(Cl)cc1Oc1ccc(Cl)c(Cl)c1 | 6.22 nM | 89.5 nM | 
CNCc1cc(F)ccc1Oc1ccc(Cl)cc1 | 9.47 nM | 495 nM | 
CNCc1cc(Br)ccc1Oc1ccc(Cl)c(Cl)c1 | 4.8 nM | 787 nM | 
CNC(C)c1cc(F)ccc1Oc1ccc(Cl)c(Cl)c1 (configuration not stated) | 8.09 nM | 301 nM | 
CN(C)Cc1cc(N)ccc1Oc1ccc(Cl)c(Cl)c1 | 4.99 nM | 724 nM | 
CNCc1ccccc1Oc1ccc(Cl)c(Cl)c1 | 4.02 nM | 721 nM | 
CNCc1ccc(OC)cc1Oc1ccc(Cl)c(Cl)c1 | 8.72 nM | 105 nM | 
CNCc1cc(Cl)ccc1Oc1ccc(Cl)c(Cl)c1 | 5.73 nM | 429 nM | 
CNCc1ccc(C(F)(F)F)cc1Oc1ccc(Cl)cc1 | 31.1 nM | 324 nM | 5110 nM
CCc1cc(Oc2ccc(F)cc2CNC)ccc1Cl | 5.53 nM | 274 nM | 
CNCc1cc(C(F)(F)F)ccc1Oc1ccc(Cl)c(Cl)c1 | 21.8 nM | 1800 nM | 
CNC(C)c1ccccc1Oc1ccc(C)cc1 (configuration not stated) | 94.1 nM | 55.1 nM | 
CNCc1ccc(C#N)cc1Oc1ccc(Cl)c(Cl)c1 |  | 315 nM | 1310 nM
CNC(C)c1ccc(Cl)cc1Oc1ccc(C)c(C)c1 (configuration not stated) | 115 nM | 6.82 nM | 
CNC(C)c1ccc(OC)cc1Oc1ccc(Cl)c(Cl)c1 (configuration not stated) | 41.2 nM | 88 nM | 
CNCc1cc(OC)ccc1Oc1ccc(Cl)c(Cl)c1 | 3.77 nM | 1450 nM | 
